Experimental data as given in patent publication US20110319392A1, “Thiazole Sulfonamide And Oxazole Sulfonamide Kinase Inhibitors” (priority 2009, published 2011).

Tests used:
SK-MEL-3 tumor cells = experiment: Cell growth inhibition assay (CellTiter-Glo), SK-MEL-3; assay type: cell-based, Human; conditions: Homo sapiens, SK-MEL3
In short: (§1)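 Cells plated at 500 cells/well in their growth media, dosed next day with nine-step 1:3 compound dilutions (final DMSO 0.2%), then incubated 3 days at 37° C, 5% CO2. Total ATP read by CellTiter-Glo luminescence as a surrogate for cell number; IC50 interpolated from 4-parameter fit versus DMSO controls.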

HT-29 tumor cells = experiment: Cell growth inhibition assay (CellTiter-Glo), HT-29; assay type: cell-based, Human; conditions: Homo sapiens
In short: as §1

ErbB2 = molecular target: T1, ErbB2 (Homo sapiens, UniProt P04626); experiment: ErbB-2 substrate phosphorylation assay (HTRF); assay type: biochemical
T1 construct: made in house; host or cells: baculovirus expression system
In short: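 Baculovirus-expressed EGFR (0.8 nM) or ErbB2 (10 nM) in enzyme mix, preincubated 1 h at 20 °C with compound (0.00027–47.6 μM final), then 90 min at 20 °C with substrate mix of 20 μM ATP, 0.8 uM biotinylated Peptide C, MnCl2, MOPS pH 7.5. Phosphotyrosine by HTRF; pIC50 reported.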

A375P F11s tumor cells = experiment: Cell growth inhibition assay (CellTiter-Glo), A375P F11s; assay type: cell-based, Human; conditions: Homo sapiens
In short: as §1

T1 sequence (P04626 23-1255): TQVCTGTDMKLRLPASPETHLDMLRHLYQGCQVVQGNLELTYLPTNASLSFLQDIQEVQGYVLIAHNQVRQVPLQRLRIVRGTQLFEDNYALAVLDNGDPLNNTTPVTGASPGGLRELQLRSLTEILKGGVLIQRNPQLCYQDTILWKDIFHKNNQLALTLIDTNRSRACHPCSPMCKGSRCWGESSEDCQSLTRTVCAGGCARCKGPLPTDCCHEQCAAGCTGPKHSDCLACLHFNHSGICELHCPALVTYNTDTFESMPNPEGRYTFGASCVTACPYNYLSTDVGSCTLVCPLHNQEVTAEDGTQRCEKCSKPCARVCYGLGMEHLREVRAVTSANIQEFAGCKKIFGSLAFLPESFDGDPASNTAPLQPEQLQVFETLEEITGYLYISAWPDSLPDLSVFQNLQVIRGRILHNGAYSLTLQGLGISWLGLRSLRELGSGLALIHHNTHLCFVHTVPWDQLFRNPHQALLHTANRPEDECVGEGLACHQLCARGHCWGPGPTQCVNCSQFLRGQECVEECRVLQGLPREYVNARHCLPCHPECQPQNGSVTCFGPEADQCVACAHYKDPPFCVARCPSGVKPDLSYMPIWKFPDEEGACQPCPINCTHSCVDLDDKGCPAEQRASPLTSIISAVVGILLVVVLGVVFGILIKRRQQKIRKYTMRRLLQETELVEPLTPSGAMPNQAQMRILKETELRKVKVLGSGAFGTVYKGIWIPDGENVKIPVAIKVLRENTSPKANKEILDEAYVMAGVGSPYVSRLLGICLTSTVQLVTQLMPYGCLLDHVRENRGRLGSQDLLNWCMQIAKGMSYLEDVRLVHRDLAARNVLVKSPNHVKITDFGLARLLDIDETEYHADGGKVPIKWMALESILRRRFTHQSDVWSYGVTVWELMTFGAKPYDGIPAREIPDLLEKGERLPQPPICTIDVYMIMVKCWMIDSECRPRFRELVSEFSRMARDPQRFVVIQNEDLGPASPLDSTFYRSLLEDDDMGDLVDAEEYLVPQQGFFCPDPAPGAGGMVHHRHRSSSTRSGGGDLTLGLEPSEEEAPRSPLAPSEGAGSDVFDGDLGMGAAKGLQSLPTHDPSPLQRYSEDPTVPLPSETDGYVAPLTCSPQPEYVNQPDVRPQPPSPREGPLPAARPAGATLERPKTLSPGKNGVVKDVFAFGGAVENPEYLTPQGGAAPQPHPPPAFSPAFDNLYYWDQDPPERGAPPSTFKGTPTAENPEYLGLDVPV

Question: How did the IC50 (SK-MEL-3 tumor cells) turn out when `CCc1nc(-c2cccc(NS(=O)(=O)c3ccccc3)c2)c(-c2ccnc(Nc3ccc(N4CCN(C(C)=O)CC4)nc3)n2)s1` [Example 3, N-{3-[5-(2-{[6-(4-Acetyl-1-piperazinyl)-3-pyridinyl]amino}-4-pyrimidinyl)-2-ethyl-1,3-thiazol-4-yl]phenyl}benzenesulfonamide] was run?
Answer: < 100 nM

Question: What about the IC50 (HT-29 tumor cells) of the same compound?
Answer: 100 to 1000 nM

Question: And the IC50 (ErbB2)?
Answer: > 1000 nM

Question: What about the IC50 (A375P F11s tumor cells) of the same compound?
Answer: < 100 nM

Question: How did the IC50 (SK-MEL-3 tumor cells) turn out when `CCc1nc(-c2cccc(NS(=O)(=O)c3ccccc3)c2)c(-c2ccnc(Nc3ccc(N4CCOCC4)c(F)c3)n2)s1` [Example 4] was run?
Answer: 100 to 1000 nM

Question: What about the IC50 (HT-29 tumor cells) of the same compound?
Answer: 100 to 1000 nM

Question: And the IC50 (ErbB2)?
Answer: > 1000 nM

Question: And the IC50 (A375P F11s tumor cells)?
Answer: 100 to 1000 nM

Question: For `CCc1nc(-c2cccc(NS(=O)(=O)c3ccccc3)c2)c(-c2ccnc(Nc3ccc(OC)c(N4CCN(CCS(C)(=O)=O)CC4)c3)n2)s1` [Example 5, N-[3-(2-Ethyl-5-{2-[(4-(methyloxy)-3-{4-[2-(methylsulfonyl)ethyl]-1-piperazinyl}phenyl)amino]-4-pyrimidinyl}-1,3-thiazol-4-yl)phenyl]benzenesulfonamide], which IC50 (SK-MEL-3 tumor cells) is on record?
Answer: < 100 nM

Question: And the IC50 (HT-29 tumor cells)?
Answer: < 100 nM

Question: And the IC50 (ErbB2)?
Answer: 100 to 1000 nM

Question: What about the IC50 (A375P F11s tumor cells) of the same compound?
Answer: < 100 nM

Question: Which results are given for `CC(=O)N1CCc2cc(Nc3nccc(-c4sc(C(C)C)nc4-c4cccc(NS(=O)(=O)c5ccccc5)c4)n3)ccc21` [Example 71]?
Answer: IC50 (SK-MEL-3 tumor cells): < 100 nM; IC50 (HT-29 tumor cells): < 100 nM; IC50 (ErbB2): < 100 nM; IC50 (A375P F11s tumor cells): < 100 nM

Question: Which results are given for `CC(C)c1nc(-c2cccc(NS(=O)(=O)c3ccccc3)c2)c(-c2ccnc(Nc3ccc(CC4CCN(CCS(C)(=O)=O)CC4)c(F)c3)n2)s1` [Example 72]?
Answer: IC50 (SK-MEL-3 tumor cells): < 100 nM; IC50 (HT-29 tumor cells): 100 to 1000 nM; IC50 (ErbB2): > 1000 nM; IC50 (A375P F11s tumor cells): 100 to 1000 nM

Question: With `CC(C)c1nc(-c2cccc(NS(=O)(=O)c3ccccc3)c2)c(-c2ccnc(Nc3ccc(F)c(N4CCN(CCS(C)(=O)=O)CC4)c3)n2)s1` [Example 73] as the compound, how does the IC50 (SK-MEL-3 tumor cells) read?
Answer: < 100 nM

Question: And the IC50 (HT-29 tumor cells)?
Answer: 100 to 1000 nM

Question: What about the IC50 (ErbB2) of the same compound?
Answer: 100 to 1000 nM

Question: And the IC50 (A375P F11s tumor cells)?
Answer: < 100 nM

Question: Which results are given for `CC(C)c1nc(-c2cccc(NS(=O)(=O)c3ccccc3)c2)c(-c2ccnc(Nc3ccc(N4CCN(CCS(C)(=O)=O)CC4)c(F)c3F)n2)s1` [Example 74]?
Answer: IC50 (SK-MEL-3 tumor cells): 100 to 1000 nM; IC50 (HT-29 tumor cells): > 1000 nM; IC50 (ErbB2): > 1000 nM; IC50 (A375P F11s tumor cells): 100 to 1000 nM

Question: For `CC(C)c1nc(-c2cccc(NS(=O)(=O)c3c(F)cccc3F)c2)c(-c2ccnc(Nc3ccc(N4CCN(C(C)C)CC4)cc3O)n2)s1` [Example 78], which IC50 (SK-MEL-3 tumor cells) is on record?
Answer: < 100 nM

Question: What about the IC50 (HT-29 tumor cells) of the same compound?
Answer: > 1000 nM

Question: And the IC50 (ErbB2)?
Answer: 100 to 1000 nM

Question: And the IC50 (A375P F11s tumor cells)?
Answer: < 100 nM

Question: With `COc1cc(N2CCN(CCF)CC2)ccc1Nc1nccc(-c2sc(C(C)C)nc2-c2cccc(NS(=O)(=O)c3c(F)cccc3F)c2)n1` [Example 79] as the compound, how does the IC50 (SK-MEL-3 tumor cells) read?
Answer: 100 to 1000 nM

Question: What about the IC50 (HT-29 tumor cells) of the same compound?
Answer: 100 to 1000 nM

Question: And the IC50 (ErbB2)?
Answer: 100 to 1000 nM

Question: What about the IC50 (A375P F11s tumor cells) of the same compound?
Answer: 100 to 1000 nM

Question: Which results are given for `CC(C)c1nc(-c2cccc(NS(=O)(=O)c3c(F)cccc3F)c2)c(-c2ccnc(Nc3ccc(N4CCN(CCO)CC4)nc3)n2)s1` [Example 80]?
Answer: IC50 (SK-MEL-3 tumor cells): < 100 nM; IC50 (HT-29 tumor cells): 100 to 1000 nM; IC50 (ErbB2): > 1000 nM; IC50 (A375P F11s tumor cells): < 100 nM

Question: Which IC50 (SK-MEL-3 tumor cells) does the source give for `CC(C)c1nc(-c2cccc(NS(=O)(=O)c3c(F)cccc3F)c2)c(-c2ccnc(Nc3cccc(N4CCN(C)CC4)c3)n2)s1` [Example 81] here?
Answer: < 100 nM

Question: And the IC50 (HT-29 tumor cells)?
Answer: 100 to 1000 nM

Question: What about the IC50 (ErbB2) of the same compound?
Answer: 100 to 1000 nM

Question: What about the IC50 (A375P F11s tumor cells) of the same compound?
Answer: < 100 nM

Question: Which IC50 (SK-MEL-3 tumor cells) does the source give for `CC(C)c1nc(-c2cccc(NS(=O)(=O)c3c(F)cccc3F)c2)c(-c2ccnc(Nc3ccc(N4CCCNCC4)nc3)n2)s1` [Example 82] here?
Answer: < 100 nM

Question: What about the IC50 (HT-29 tumor cells) of the same compound?
Answer: 100 to 1000 nM

Question: And the IC50 (ErbB2)?
Answer: 100 to 1000 nM

Question: And the IC50 (A375P F11s tumor cells)?
Answer: < 100 nM

Question: With `CC(C)c1nc(-c2cc(F)cc(NS(=O)(=O)c3ccc(F)cc3)c2)c(-c2ccnc(Nc3ccc(N4CCOCC4)c(F)c3)n2)s1` [Example 83] as the compound, how does the IC50 (SK-MEL-3 tumor cells) read?
Answer: 100 to 1000 nM

Question: What about the IC50 (HT-29 tumor cells) of the same compound?
Answer: > 1000 nM

Question: And the IC50 (ErbB2)?
Answer: > 1000 nM

Question: And the IC50 (A375P F11s tumor cells)?
Answer: 100 to 1000 nM

Question: With `CC(C)c1nc(-c2cc(F)cc(NS(=O)(=O)c3c(F)cccc3F)c2)c(-c2ccnc(Nc3ccc(N4CCOCC4)nc3)n2)s1` [Example 84] as the compound, how does the IC50 (SK-MEL-3 tumor cells) read?
Answer: < 100 nM

Question: And the IC50 (HT-29 tumor cells)?
Answer: < 100 nM

Question: What about the IC50 (ErbB2) of the same compound?
Answer: > 1000 nM

Question: And the IC50 (A375P F11s tumor cells)?
Answer: < 100 nM

Question: With `CC(C)c1nc(-c2cc(F)cc(NS(=O)(=O)c3c(F)cccc3F)c2)c(-c2ccnc(Nc3ccc(N4CCOCC4)c(F)c3)n2)s1` [Example 85] as the compound, how does the IC50 (SK-MEL-3 tumor cells) read?
Answer: < 100 nM

Question: What about the IC50 (HT-29 tumor cells) of the same compound?
Answer: 100 to 1000 nM

Question: What about the IC50 (ErbB2) of the same compound?
Answer: 100 to 1000 nM

Question: And the IC50 (A375P F11s tumor cells)?
Answer: < 100 nM

Question: What does the source list for `CC(C)c1nc(-c2cccc(NS(=O)(=O)c3c(F)cccc3F)c2)c(-c2ccnc(Nc3cc(F)c(N4CCN(CCS(C)(=O)=O)CC4)cc3F)n2)s1` [Example 87]?
Answer: IC50 (SK-MEL-3 tumor cells): < 100 nM; IC50 (HT-29 tumor cells): 100 to 1000 nM; IC50 (ErbB2): 100 to 1000 nM; IC50 (A375P F11s tumor cells): < 100 nM

Question: With `CC(C)c1nc(-c2cccc(NS(=O)(=O)c3c(F)cccc3F)c2)c(-c2ccnc(Nc3ccc(N4CCCN(CCS(C)(=O)=O)CC4)nc3)n2)s1` [Example 88] as the compound, how does the IC50 (SK-MEL-3 tumor cells) read?
Answer: < 100 nM

Question: What about the IC50 (HT-29 tumor cells) of the same compound?
Answer: < 100 nM

Question: What about the IC50 (ErbB2) of the same compound?
Answer: 100 to 1000 nM

Question: What about the IC50 (A375P F11s tumor cells) of the same compound?
Answer: < 100 nM

Question: For `CC(C)c1nc(-c2cccc(NS(=O)(=O)c3c(F)cccc3F)c2)c(-c2ccnc(Nc3ccc(N4CC[C@@H](O)C4)nc3)n2)s1` [Example 89], which IC50 (SK-MEL-3 tumor cells) is on record?
Answer: < 100 nM

Question: What about the IC50 (HT-29 tumor cells) of the same compound?
Answer: > 1000 nM

Question: What about the IC50 (ErbB2) of the same compound?
Answer: 100 to 1000 nM

Question: What about the IC50 (A375P F11s tumor cells) of the same compound?
Answer: < 100 nM

Question: With `Cc1cc(N2CCC(N3CCCCC3)CC2)ccc1Nc1nccc(-c2sc(C(C)C)nc2-c2cccc(NS(=O)(=O)c3c(F)cccc3F)c2)n1` [Example 91] as the compound, how does the IC50 (SK-MEL-3 tumor cells) read?
Answer: 100 to 1000 nM

Question: And the IC50 (HT-29 tumor cells)?
Answer: > 1000 nM

Question: What about the IC50 (ErbB2) of the same compound?
Answer: < 100 nM

Question: What about the IC50 (A375P F11s tumor cells) of the same compound?
Answer: 100 to 1000 nM

Question: Which results are given for `CC(C)c1nc(-c2cccc(NS(=O)(=O)c3ccccc3)c2)c(-c2ccnc(Nc3ccc(N4CCOCC4)cn3)n2)s1` [Example 92]?
Answer: IC50 (SK-MEL-3 tumor cells): 100 to 1000 nM; IC50 (HT-29 tumor cells): > 1000 nM; IC50 (ErbB2): > 1000 nM; IC50 (A375P F11s tumor cells): 100 to 1000 nM

Question: Which results are given for `C=C(C)c1nc(-c2cccc(NS(=O)(=O)c3c(F)cccc3F)c2)c(-c2ccnc(Nc3ccc(N4CCN(CCF)CC4)c(F)c3)n2)s1` [Example 93]?
Answer: IC50 (SK-MEL-3 tumor cells): 100 to 1000 nM; IC50 (HT-29 tumor cells): > 1000 nM; IC50 (ErbB2): 100 to 1000 nM; IC50 (A375P F11s tumor cells): 100 to 1000 nM

Question: For `CC(C)c1nc(-c2ccc(F)c(NS(=O)(=O)c3c(F)cccc3F)c2)c(-c2ccnc(Nc3ccc(N4CCN(CCS(C)(=O)=O)CC4)c(F)c3)n2)s1` [Example 95], which IC50 (SK-MEL-3 tumor cells) is on record?
Answer: 100 to 1000 nM

Question: What about the IC50 (HT-29 tumor cells) of the same compound?
Answer: > 1000 nM

Question: And the IC50 (ErbB2)?
Answer: 100 to 1000 nM

Question: And the IC50 (A375P F11s tumor cells)?
Answer: 100 to 1000 nM

Question: For `CC(=O)N1CCN(c2ccc(Nc3nccc(-c4sc(C(C)C)nc4-c4cccc(NS(=O)(=O)c5cc(F)ccc5F)c4)n3)cn2)CC1` [Example 96], which IC50 (SK-MEL-3 tumor cells) is on record?
Answer: < 100 nM

Question: What about the IC50 (HT-29 tumor cells) of the same compound?
Answer: < 100 nM

Question: What about the IC50 (ErbB2) of the same compound?
Answer: > 1000 nM

Question: And the IC50 (A375P F11s tumor cells)?
Answer: < 100 nM
